Structures are written as SMILES.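 Briefly, cells in 96-well plates were exposed to five compound concentrations for 48 h, and endpoints were estimated by linear interpolation. GI50: concentration for 50% inhibition of growth. TGI: concentration producing complete growth inhibition.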 Bounds are passed on as bounds.

Test in all cases: growth of human tumour cells (NCI), 48 h
Test [1] relates to KM12 colon.
For test [2], the system named is SK-MEL-2 melanoma.
Test [3] relates to UO-31 renal.
The subject of test [4] is NCI-H460 lung.
Test [5] has as its system SF-268 CNS.
In test [6] the test system is SK-OV-3 ovarian.
The subject of test [7] is OVCAR-8 ovarian.
The subject of test [8] is NCI-H23 lung.
Test [9] deals with SN12C renal.
For test [10], the system named is MDA-MB-231 breast.

With `O=C1OC(c2ccccc2)=N/C1=C/N1CCCC1C(=O)O` (stereo unspecified), the TGI in test [1], in [2], in [3], in [4], in test [5] and in test [6] was over 100 µM throughout. Further, the TGI in [7] and in [8] was over 100 µM in each case.

`CSC1NNC2(C(=O)N1)c1ccccc1-c1ccccc12` (stereo unspecified): the TGI in test [1], in test [3], in test [4], in [9], in test [5] and in [10] was over 10 µM in each case. Also, the TGI in test [6], in test [7] and in [8] was over 10 µM in each case.

`Cc1ccc2c(=O)c(C(=O)N(CCO)CCO)c[nH]c2n1`: the TGI in test [1], in [2], in test [3], in test [4], in [9] and in [5] was over 100 µM in each case. For the same molecule, the TGI in test [10], in test [7] and in test [8] was over 100 µM each time.

In the case of `O=C(NCCCCNCCCNC(=O)OCc1ccccc1)OCc1ccccc1`, the TGI is 98.5 µM in [1]; 59.8 µM in [2]; 93.1 µM in test [3]; 69 µM in test [4]; over 100 µM in test [9]; over 100 µM in [5]. The figures for the TGI in test [6], in test [7] and in [8] were over 100 µM, 67.1 µM and over 100 µM, respectively.

On to `CN(CCN(C)C(=O)CCn1ccc(=O)[nH]c1=O)C(=O)CCn1ccc(=O)[nH]c1=O`, for which the TGI in test [1], in test [2], in test [3], in test [4], in test [9] and in test [5] was over 100 µM throughout. Also, the TGI in [7] and in test [8] was over 100 µM each time.

`COc1ccc(N2C(=O)C(N3C(=O)C=CC3=O)C2C=O)cc1` (stereo unspecified): the TGI in test [1], in test [2], in test [3], in test [4], in test [9] and in test [5] was over 100 µM throughout. Besides, the TGI in test [6], in test [7] and in [8] was over 100 µM each time.

In the case of `CCOC(=O)C[n+]1ccc2c([nH]c3cc(OC)ccc32)c1C`, the TGI in test [1], in test [2], in test [3], in [4], in test [9] and in [5] was over 100 µM throughout. Moreover, the TGI in test [6], in test [7] and in test [8] was over 100 µM throughout.

`CCOC(=O)CCC(C(=O)OCC)n1nnc2cc(Nc3c(C)[n+]([O-])c4ccc(Cl)cc4[n+]3[O-])ccc21` (stereo unspecified): the TGI in [1], in test [2], in [3], in test [4], in [9] and in test [5] was over 100 µM each time. The TGI in test [6], in [7] and in test [8] was over 100 µM throughout.

Regarding `CCCCCCc1cn([C@H]2C[C@H](O)[C@@H](CO)O2)c(=O)[nH]c1=O`, the TGI in test [1], in test [2], in test [3], in test [4], in test [9] and in test [5] was over 100 µM in each case. The TGI in [7] and in test [8] was over 100 µM throughout.

As to `CCOC(=O)c1c(-c2ccc(OC)c(O)c2)c(C#N)c(=S)n(C2OC(CO)C(O)C(O)C2O)c1-c1ccccc1` (stereo unspecified), the TGI in [1], in test [3], in test [4], in test [9], in test [5] and in test [8] was over 100 µM each time.

For the molecule `COc1cc(C2(C)SCCCS2)c(I)c(OC)c1OC`, the TGI in test [1], in test [2], in [3], in test [4], in test [9] and in [5] was over 100 µM in each case. Moreover, the TGI in [6], in [7] and in test [8] was over 100 µM in each case.

In the case of `CCC1CCC2c3c([nH]c4ccccc34)C3C(=O)N(c4ccc(OC)cc4)C(=O)C3C2C1` (stereo unspecified), the TGI in [1], in [3], in test [4], in test [9], in test [5] and in [10] was over 100 µM each time. The TGI in [6], in test [7] and in [8] was over 100 µM each time.

As for `CCOC(=O)N1C(=S)C(C(=O)OC)(C(=O)OC)N=C1C`, the TGI in test [1], in [2], in test [3], in [4], in test [9] and in [6] was over 100 µM in each case. Further, the TGI in test [7] and in test [8] was over 100 µM each time.

Regarding `C[n+]1c(-c2ccc(/C=N/Nc3ccnc(N/N=C/c4ccc(-c5cn6ccccc6[n+]5C)cc4)n3)cc2)cn2ccccc21`, the TGI is over 100 µM in test [1]; 45.4 µM in test [3]; over 100 µM in test [4]; over 100 µM in test [9]; over 100 µM in test [5]; over 100 µM in test [10]. Further, the TGI in [6] and in test [7] was over 100 µM each time.

On to `NC1CCCCC1N.O=S(=O)([O-])CCCN1CCN(CCO)CC1.O=S(=O)([O-])CCCN1CCN(CCO)CC1.[Pt+4]`, for which the GI50 is 13.2 µM in test [1]; 13.1 µM in test [2]; 13.5 µM in test [3]; 1150 nM in test [4]; 7.56 µM in test [9]; 3.72 µM in [5]. Further, the GI50 in test [6] is over 87.2 µM; in test [7], 2780 nM; in test [8], 7.36 µM. The TGI is over 100 µM in [1]; 23.4 µM in test [2]; over 100 µM in test [3]; over 46 µM in test [4]; over 100 µM in test [9]; over 78 µM in test [5]. Moreover, the TGI in test [6], in test [7] and in [8] was over 100 µM throughout.

The record behind these values is PubChem BioAssay (NCI).
